The test system of assay [1] is phenylbenzoquinone (PBQ)-induced writhing in mice. As to the kind of experiment: Writhing Assay (PBQ-induced writhing in mice, analgesic activity). In kind it is in vivo, mouse (Charles River male albino mice). Conditions: i.g.; for Writhing assay: number of mice out of eight or ten in which test compound produced analgesia: 30 mpk, 30 min before PBQ i.p., fraction of mice. The text has this:
The Writhing Assay is one of the most widely-used experimental procedures for measuring the analgesic activity of different narcotic and nonnarcotic analgesic agents, and involves the continuous, chemically-induced pain of visceral origin to an animal, such as a mouse or rat. [Gyires et al., Arch. int. Pharmacodyn, 267, 131-140 (1984); C. Vander Wende et al., Fed. Proc., 15, 494 (1956); Koster et al., Fed. Proc., 18, 412 (1959); and Witken et al., J. Pharmacol. exp. Ther., 133, 400-408 (1961).] Chemicals which may be used to induce this pain include phenylbenzoquinone (PBQ) and acetic acid. As a result of the chemical irritation to the animal, a characteristic stretching and writhing of the animal (dorsiflexion of the animal's back, extension of its hindlimbs and the strong contraction of its abdominal musculature) will generally occur. […] Drugs which reduce the number of writhes of the animal appear to restore the normal nociceptive threshold of the animal.
Charles River male albino mice, weighing 20 to 30 grams, were used in this assay.
Thirty minutes after intragastric administration to ten mice of 30 mg per kilogram of body weight of a compound of the present invention ("test compound"), […] per 10 g of body weight of a 0.025% w/v solution of PBQ was injected intraperitoneally into each mouse. Ten mice which were given saline in place of a test compound of the invention were used as a control group.
Five minutes later, each mouse was individually placed into a glass beaker for observation, and the number of writhes occurring during the following ten-minute period was counted.
A test compound was considered to have produced analgesia in a mouse if, in accordance with the conditions set forth above, and under the test criteria employed for this assay, after the administration of 30 mg per kilogram of body weight of a compound of the present invention to the mouse, the number of writhes elicited by a mouse injected with PBQ was equal to, or less than, one-half the median number of writhes recorded for the saline-treated control group of mice that day, as described by Taber in "Predictive Value of Analgesic Assays in Mice and Rats," Advances in Biochemical Psychopharmacology, 8, 191 (1974).
The results for the particular compounds of the present invention analyzed in this assay, and discussed in the examples identified below which correspond thereto, are presented in Table 1 hereinbelow as fractions under the heading "WRITHING ASSAY." The fractions indicate the number of mice out of eight or ten in which a test compound produced analgesia.
The standard initial screening dose of a test compound employed in this assay was 30 mpk […]. Generally, if this initial screening dose of the test compound produced analgesia in seven out of ten mice, then the effect of additional doses of the test compound on the writhing response was evaluated, and then the ED50 dose was generally calculated. (The slopes of the dose-response curves for all test compounds analyzed were compared as described by Tallarida and Murray, Manual of Pharmacologic Calculations, Page 11 (Springer Verlag, New York, 1981)).
All ED50 doses calculated are also presented in Table 1 hereinbelow under the heading "WRITHING ASSAY," but as whole numbers.
Background: Writhing tests count abdominal constrictions after an irritant is injected.

Assay [2] has as its system prostaglandin E2-induced contractions of guinea pig ileum. As to the kind of experiment: Prostaglandin (PGE) Antagonism Assay (inhibition of prostaglandin E2-induced contractions of segments of guinea pig ileum). Conditions: test compound 3 × 10^-6 M, 30 min incubation; dose ratio of PGE2 EC50 values; average where more than one determined. How it is done: (b) Prostaglandin (PGE) Antagonism Assay
In order to determine the effectiveness of several of the compounds of the present invention ("test compounds") as prostaglandin E2 antagonists,a prostaglandin antagonism assay was conducted, as described below, to determine the ability of these compounds to inhibit prostaglandin E2 -induced contractions of segments of guinea pig ileum.
Male albino guinea pigs weighing 200 to 500 grams were sacrificed by cervical dislocation. The ilea were then quickly removed from the guinea pigs and placed in a modified Tyrode solution, a solution which is known to those skilled in the art, containing one-half of the usual amount of magnesium ions.
Segments of ileum about 2 cm long were then cut and mounted in a 10 mL tissue bath containing the modified Tyrode solution. The solution was maintained at 37° C. and aerated with a gaseous mixture of 95% oxygen and 5% carbon dioxide. Data for a control prostaglandin E2 dose response curve plotting concentration of prostaglandin E2 versus the intensity of contractions, detected isotonically, was then obtained by experimentally adjusting the dose of the prostaglandin E2 being injected into the tissue bath, in a manner known by those of skill in the art.
Solutions or suspensions containing an initial concentration (3 micromolar) of a test compound in modified Tyrode solution ("test solutions/suspensions") were then separately substituted for the control bath solution. Each test solution/suspension was then kept in constant contact with the ileum tissue, except for brief periods to drain the bath in preparation for rinsing with fresh test solution/suspension. A second prostaglandin E2 dose response curve was then generated for prostaglandin E2 in the presence of a test compound.
A control dose response curve is produced in isolated segments of guinea pig ileum mounted in an automated apparatus with six concentrations of prostaglandin E2. A solution or suspension of test compound is substituted for the control bathing solution and is incubated for thirty minutes. An additional prostaglandin E2 dose response curve is then performed in the presence of the test compound. A dose ratio is calculated from the EC50 values obtained from duplicate replications on each concentration of the test compound.
A dose ratio of EC50 doses was calculated from the results of each test in a manner known by those of skill in the art, and described above.
The dose ratios reported in Table 1 represent an average of multiple dose ratios for those compounds for which more than one dose ratio was determined. The compounds of the present invention which were tested in this assay, and for which results are presented in Table 1, correspond to the particular examples specified in Table 1.
The pA2 value (a statistical constant which is a common measure of expressing the potency of a particular drug as a competitive antagonist), rather than the dose ratio, was calculated for the test compound shown and described in Example 6 by schild plot calculations, as described by H. O. Schild, "pA, A New Scale for the Measurement of Drug Antagonism," Br. J. Pharmacol, 2, 189 (1947), and is reported in Table 1.

Take `O=C1OC(c2ccccc2)C2c3ccccc3Oc3ccc(Cl)cc3N12` (single isomer, unassigned) [Compound 4, 6-chloro-1,13b-dihydro-1-phenyl-3H-dibenz[b,f]oxazolo-[3,4-d][1,4]oxazepin-3-one]: in assay [1], the “Writhing assay: number of mice out of eight or ten in which test compound produced analgesia” value (from here on “Writhing assay: number”) was 3/10. Besides, in assay [2], the “PGE2 antagonism in guinea pig ileum: Dose Ratio at 3 × 10^-6 M” value (shortened to “PGE2 antagonism … Dose Ratio at 3 × 10^-6 M”) is given as 0.87.
On to `O=C1O[C@@H](c2ccccn2)[C@@H]2c3ccccc3Oc3ccc(Cl)cc3N12` (relative stereo) [Compound 11, cis-6-chloro-1,13b-dihydro-1-(2-pyridyl)-3H-dibenz[b,f]oxazolo[3,4-d][1,4]-oxazepin-3-one], for which the “Writhing assay: number” value in assay [1] is reported as 2/8. For the same molecule, the “PGE2 antagonism … Dose Ratio at 3 × 10^-6 M” value in assay [2] is given as 8.6.
For `O=C1OC(c2ccccn2)C2c3ccccc3Oc3ccc(Cl)cc3N12` (stereo not drawn) [Compound 10, 6-chloro-1,13b-dihydro-1-(2-pyridyl)-3H-dibenz-[b,f]oxazolo[3,4-d][1,4]oxazepin-3-one], the “Writhing assay: number” value in assay [1] is reported as 1/10. Further, in assay [2], the “PGE2 antagonism … Dose Ratio at 3 × 10^-6 M” value is given as 28.94.
Regarding `O=C1OC(c2ccncc2)c2c(Cl)ccc3c2N1Cc1ccccc1O3` (stereo not drawn) [Compound 5, 4-chloro-3-(4-pyridyl)-1H,3H,12H-[3,1]-benzoxazino-[8,1-b,c][1,4]benzoxazepin-1-one], in assay [1], the “Writhing assay: number” value is 10/10. For the same molecule, in assay [1] (Mus musculus, PBQ i.p., read-out: Writhing assay: ED50 Dose (I.G.)), the 50% effective dose (ED50) came to 3.7 mg/kg. The “PGE2 antagonism … Dose Ratio at 3 × 10^-6 M” value in assay [2] is on record as 10.93.
`O=C1O[C@@H](c2ccncc2)[C@H]2c3ccccc3Oc3ccc(Cl)cc3N12` [Compound 6b, (-)-trans-6-chloro-1,13b-dihydro-1-(4-pyridyl)-3H-dibenz[b,f]oxazolo[3,4-d][1,4]oxazepin-3-one]: the “Writhing assay: number” value in assay [1] (30 mg/kg) is given as 6/10. Besides, in assay [2], the “PGE2 antagonism … Dose Ratio at 3 × 10^-6 M” value amounted to 2.7.
Turning to `O=C1O[C@@H](c2ccncc2)[C@H]2c3ccccc3Oc3ccc(Cl)cc3N12` (relative stereo) [Compound 7, cis-6-chloro-1,13b-dihydro-1-(4-pyridyl)-3H-dibenz[b,f]oxazolo-[3,4-d][1,4]oxazepin-3-one], in assay [1], the “Writhing assay: number” value was 9/10. Moreover, in assay [2], the “PGE2 antagonism … Dose Ratio at 3 × 10^-6 M” value was 1.5.
As to `O=C1OC(c2ccccc2)c2c(Cl)ccc3c2N1Cc1ccccc1O3` (stereo not drawn) [Compound 2, 4-chloro-3-phenyl-1H,3H,12H-[3,1]-benzoxazino[8,1-b,c][1,4]benzoxazepin-1-one], the “Writhing assay: number” value in assay [1] is given as 1/10. Also, the “PGE2 antagonism … Dose Ratio at 3 × 10^-6 M” value in assay [2] stood at 29.2.

The term ED50 denotes the dose at which the effect has come halfway, by size or by number of responders.

The values above are taken from patent publication US5677296A, “Carbamic acid derivatives of substituted dibenzoxazepine compounds, pharmaceutical compositions and methods of use” (G.D. Searle & Co., priority 1995, dated 1997).
